Results taken from publication PMC7377239, “Cardiovascular Effects of Polychlorinated Biphenyls and Their Major Metabolites” (Environmental Health Perspectives, 2020).
Structures can show the parent of a compound that is named as a salt.

Test system: iPSC-CMs, iPSC-ECs and HUVECs phenotypes
Assay: ToxPi 2.0 integration of POD values and physicochemical descriptors
Set-up: species or system human
Conditions: ToxPi-scaled (0-1) score; for huvec.cyto.24hr / huvec.mito.24hr / huvec.mitoint.24hr / huvec.nma.24hr / huvec.tc.24hr / huvec.mtl.18hr / huvec.tlps.18hr / huvec.tta.18hr / huvec.ttl.18hr: HUVECs; for huvec.mtl.18hr / huvec.tlps.18hr / huvec.tta.18hr / huvec.ttl.18hr / endo.mtl.18hr / endo.tlps.18hr / endo.tta.18hr / endo.ttl.18hr: tube formation; for cm.amp.avg.90min / cm.amp.cv.90min / cm.bpm.90min / cm.cam.90min / cm.decay.rise.90min / cm.mii.90min / cm.mito.90min / cm.spacing.cv.90min / cm.tc.90min / cm.amp.avg.24hrs / cm.amp.cv.24hrs / cm.bpm.24hrs / cm.cam.24hrs / cm.decay.rise.24hrs / cm.mii.24hrs / cm.mito.24hrs / cm.spacing.cv.24hrs / cm.tc.24hrs: iPSC cardiomyocytes; for endo.cyto.24hr / endo.mito.24hr / endo.mitoint.24hr / endo.nma.24hr / endo.tc.24hr / endo.mtl.18hr / endo.tlps.18hr / endo.tta.18hr / endo.ttl.18hr: iPSC endothelial cells
Excerpt: Phenotypic responses were quantitatively assessed using concentration–response modeling as detailed elsewhere ([Sirenko et al. 2017]). Briefly, phenotypic readouts were normalized to vehicle controls and fit to a four-parameter logistic model in R studio software (version 3.1.1; R Development Core Team). Following EPA guidance on dose–response modeling, a cutoff of one standard deviation across means of vehicle control (i.e., 0.5% vol/vol DMSO in cell culture media) wells was applied to determine the point-of-departure (POD) values ([U.S. EPA 2012]). In the absence of a concentration–response, the highest tested concentration (i.e., 100μM ) was assigned as “no observable adverse effect level.” The concentration–response assessment R script, as well as templates for vehicle and concentration–response data, are available as a supplement to Sirenko et al. ([2017]). The ability of physicochemical properties to predict differences in PODs were evaluated by multiregression and mixed-effects modeling using R.
POD values were then integrated using ToxPi 2.0 ([Marvel et al. 2018]) software. In ToxPi, each slice is representative of cell type– and time-point–specific phenotypes. The area of each slice is proportional to the relative value (e.g., bioactivity or physicochemical descriptor value) of the chemical within the data set. ToxPi scores were used to rank PCBs and their metabolites according to their overall bioactivity and to determine variability in total observable biological responses and chemical characteristics for each major metabolite class and chlorination status (mono-, hexa-chlorinated). Additional visualizations such as dumbbell and principal components analysis plots were generated in R Studio (version 1.1.456; R version 3.5.1; R Development Core Team) using the ggplot2 package.

SMILES	huvec.cyto.24hr	huvec.mito.24hr	huvec.mitoint.24hr	huvec.nma.24hr	huvec.tc.24hr	huvec.mtl.18hr	huvec.tlps.18hr	huvec.tta.18hr	huvec.ttl.18hr	cm.amp.avg.90min	cm.amp.cv.90min	cm.bpm.90min	cm.cam.90min	cm.decay.rise.90min	cm.mii.90min	cm.mito.90min	cm.spacing.cv.90min	cm.tc.90min	cm.amp.avg.24hrs	cm.amp.cv.24hrs	other results
O=C1C=CC(=O)C(c2ccc(Cl)cc2)=C1 [4-Cl-BQ, 2-(4-Chlorophenyl)benzo-2,5-quinone]	1	0.8466	0.9878	0.6676	1	0.9933	0.5585	1	0.8997	0.3159	0.2492	0.1564	0.4034	0.215	0.8851	0.387	0.3114	0	0.3257	0.3094	cm.bpm.24hrs: 0.6578; cm.cam.24hrs: 1; cm.decay.rise.24hrs: 0.8647; cm.mii.24hrs: 0.2031; cm.mito.24hrs: 0.702; cm.spacing.cv.24hrs: 0.7459; cm.tc.24hrs: 0; endo.cyto.24hr: 0.5702; endo.mito.24hr: 0.5702; endo.mitoint.24hr: 0.2683; endo.nma.24hr: 0.3599; endo.tc.24hr: 0.6463; endo.mtl.18hr: 0.5822; endo.tlps.18hr: 0.7309; endo.tta.18hr: 0.1339; endo.ttl.18hr: 0.1969
COc1ccc(-c2cccc(Cl)c2)cc1Cl [4-OMe-PCB 11, 4-methoxy-3,3′-dichlorobiphenyl]	0.2668	0.3305	0.3626	0.3507	0.2668	0.5304	0.2567	0	0.6633	0.6528	0.2486	0.4773	0.4476	0.5303	0.1771	0.5027	0.1369	0.5138	0.152	0.06047	cm.bpm.24hrs: 0.441; cm.cam.24hrs: 0.1329; cm.decay.rise.24hrs: 0.2452; cm.mii.24hrs: 0.5873; cm.mito.24hrs: 0.2518; cm.spacing.cv.24hrs: 0.1755; cm.tc.24hrs: 0.2526; endo.cyto.24hr: 0; endo.mito.24hr: 0; endo.mitoint.24hr: 0; endo.nma.24hr: 0; endo.tc.24hr: 0; endo.mtl.18hr: 0; endo.tlps.18hr: 0.2016; endo.tta.18hr: 1; endo.ttl.18hr: 1
Clc1ccc(Cl)c(-c2c(Cl)ccc(Cl)c2Cl)c1Cl [(-)-PCB 136, 2,2′,3,3′,6,6′-hexachlorobiphenyl]	0.6125	0.5549	0.9537	0.4969	0.6125	0.3427	0.303	0.01368	0	0.7629	0.2327	0.26	0.908	0.5565	0.3116	0.9077	0.07999	0.9177	0.7236	1	cm.bpm.24hrs: 0.3802; cm.cam.24hrs: 0.2824; cm.decay.rise.24hrs: 0.8976; cm.mii.24hrs: 0.3373; cm.mito.24hrs: 0.4521; cm.spacing.cv.24hrs: 0.2002; cm.tc.24hrs: 0.472; endo.cyto.24hr: 0.3713; endo.mito.24hr: 0.3713; endo.mitoint.24hr: 0.4668; endo.nma.24hr: 0; endo.tc.24hr: 0.3821; endo.mtl.18hr: 0.07274; endo.tlps.18hr: 0.09334; endo.tta.18hr: 0.6122; endo.ttl.18hr: 0.627
O=S(=O)(O)Oc1ccc(-c2cccc(Cl)c2)cc1Cl [4-PCB 11 sulfate]	0.07428	0.09457	0.4402	0.4481	0.07428	0.4352	0.2468	0	0	0.5438	0.207	0.3056	0	0.417	0	0	0.1011	0	0.2154	0.3772	cm.bpm.24hrs: 0.2853; cm.cam.24hrs: 0.3798; cm.decay.rise.24hrs: 0.3284; cm.mii.24hrs: 0.1874; cm.mito.24hrs: 0.571; cm.spacing.cv.24hrs: 0.2596; cm.tc.24hrs: 0.6332; endo.cyto.24hr: 0; endo.mito.24hr: 0; endo.mitoint.24hr: 0; endo.nma.24hr: 0; endo.tc.24hr: 0; endo.mtl.18hr: 0.1436; endo.tlps.18hr: 0.3311; endo.tta.18hr: 0.1419; endo.ttl.18hr: 0.1256
O=S(=O)(O)Oc1cc(-c2ccccc2)ccc1Cl [3-PCB 3 sulfate]	0	0	0	0	0	0.4834	0.07929	0	0.09819	0.1033	0	0	0	0	0	0	0	0	0	0	cm.bpm.24hrs: 0; cm.cam.24hrs: 0; cm.decay.rise.24hrs: 0; cm.mii.24hrs: 0.391; cm.mito.24hrs: 0; cm.spacing.cv.24hrs: 0; cm.tc.24hrs: 0; endo.cyto.24hr: 0; endo.mito.24hr: 0; endo.mitoint.24hr: 0; endo.nma.24hr: 0; endo.tc.24hr: 0; endo.mtl.18hr: 0; endo.tlps.18hr: 0.4317; endo.tta.18hr: 0; endo.ttl.18hr: 0
O=S(=O)(O)Oc1cccc(-c2ccc(Cl)cc2)c1 [3'-PCB 3 sulfate]	0	0	0	0	0	0.4173	0	0	0	0	0	0.07423	0	0	0.03988	0	0	0	0	0	cm.bpm.24hrs: 0; cm.cam.24hrs: 0; cm.decay.rise.24hrs: 0; cm.mii.24hrs: 0; cm.mito.24hrs: 0; cm.spacing.cv.24hrs: 0; cm.tc.24hrs: 0; endo.cyto.24hr: 0; endo.mito.24hr: 0; endo.mitoint.24hr: 0; endo.nma.24hr: 0; endo.tc.24hr: 0; endo.mtl.18hr: 0.5389; endo.tlps.18hr: 0.1522; endo.tta.18hr: 0.1963; endo.ttl.18hr: 0.2248
Oc1cc(Cl)cc(-c2cccc(Cl)c2)c1 [5-OH-PCB 11]	0.4815	0.5672	0.6755	0.5619	0.4815	0.5955	0	0	0.1684	0.6478	0.2678	0.7407	0.7498	0.5778	0.4013	0.8059	0.07982	0.8069	0.069	0.2233	cm.bpm.24hrs: 0.1451; cm.cam.24hrs: 0.2664; cm.decay.rise.24hrs: 0.2666; cm.mii.24hrs: 0.6539; cm.mito.24hrs: 0.4142; cm.spacing.cv.24hrs: 0.2695; cm.tc.24hrs: 0.5144; endo.cyto.24hr: 0.1503; endo.mito.24hr: 0.1503; endo.mitoint.24hr: 0.08226; endo.nma.24hr: 0.3443; endo.tc.24hr: 0.1482; endo.mtl.18hr: 0.3075; endo.tlps.18hr: 0.4586; endo.tta.18hr: 0.2424; endo.ttl.18hr: 0.241
